Test results: patent publication US20090011057A1, “FORMULATIONS AND METHODS FOR INHIBITING ANAEROBES, GRAM NEGATIVE BACTERIA, PROTOZOA AND OTHER MICROBIAL GROWTH WITH MORINDA CITRIFOLIA L. ENHANCED FORMULATIONS” (priority 2007, published 2009)
In brackets after ≈: the same amount, converted by molar mass.

Assays:
Type in all cases: cell-based
[1] = system: Actinomyces viscosus (ATCC 15987); experiment: Anti-infective in vitro assay, growth inhibition (turbidity); settings: ATCC15987, read-out: Reference Compound, Concurrent (MIC)
Experimental: (§1) In a preliminary investigations the potential usage of the M. citrifolia Noni fruit juice on bacterial species and various protozoan species, which are known to cause economic downfalls in humans and livestock industries were assessed.
(§2) Method employed in this study have been adapted from the scientific literature to maximize reliability and reproducibility. Reference standards were run as an integral part of each assay to ensure the validity of the results obtained. Materials utilized are described in the following charts.

[2] = system: Salmonella typhimurium (ATCC 13311); experiment: as above; settings: Salmonella typhimuium (ATCC 13311)
Experimental: as §1, §2

[3] = system: Trichomonas foetus (Br. M. Strain); experiment: Anti-infective in vitro assay, inhibition of growth examined; settings: Tritrichomonas foetus, read-out: Reference Compound, Concurrent (MIC)
Experimental: as §1, §2

CC1(C)S[C@@H]2[C@H](NC(=O)[C@H](N)c3ccccc3)C(=O)N2[C@H]1C(=O)O [Ampicillin]
MIC [1]: 0.03 µg/mL (≈ 0.0859 µM)

Gentamicin
MIC [2]: 0.3 µg/mL

Cc1ncc([N+](=O)[O-])n1CCO [Metronidazole]
MIC [3]: 3 µg/mL (≈ 17.5 µM)
